Results from the supplement of paper PMC10307832.

How the values were obtained:
Assay in all cases: relative viability (nuclei count vs DMSO), 5 days (fraction); higher = more cells survive
[1] = compound: CC[C@H](Nc1ncnc2[nH]cnc12)c1nc2cccc(F)c2c(=O)n1-c1ccccc1 [Idelalisib] + Cc1nc(Nc2ncc(C(=O)Nc3c(C)cccc3Cl)s2)cc(N2CCN(CCO)CC2)n1 [Dasatinib] (partner 0.075 µM)
Outline: (§1)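 Lung cancer cell lines were pin-tool dosed in 1536-well plates on the day after seeding, with either a lone drug or a fixed anchor-drug dose plus five library-drug doses (not always all listed) in √10 steps. Nuclei were counted on 4× images after 5 days. Relative viability is the ratio of treated-well to vehicle-well nuclei counts, with each value a median of duplicate plates.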

[2] = compound: CC[C@H](Nc1ncnc2[nH]cnc12)c1nc2cccc(F)c2c(=O)n1-c1ccccc1 [Idelalisib] + Nc1ncn([C@H]2C[C@H](O)[C@@H](CO)O2)c(=O)n1 [Decitabine] (partner 2 µM)
Outline: as §1

[3] = compound: Nc1nc2[nH]cc(CCc3ccc(C(=O)N[C@@H](CCC(=O)O)C(=O)O)cc3)c2c(=O)[nH]1 [Pemetrexed] + CC(=O)Nc1cccc(-n2c(=O)n(C3CC3)c(=O)c3c(Nc4ccc(I)cc4F)n(C)c(=O)c(C)c32)c1 [Trametinib] (partner 0.02 µM)
Outline: as §1

[4] = compound: Nc1nc2[nH]cc(CCc3ccc(C(=O)N[C@@H](CCC(=O)O)C(=O)O)cc3)c2c(=O)[nH]1 [Pemetrexed] + Cc1cc(Nc2cc(N3CCN(C)CC3)nc(Sc3ccc(NC(=O)C4CC4)cc3)n2)n[nH]1 [Tozasertib] (partner 0.1 µM)
Outline: as §1

Cell Line | relative viability ([1]; first compound 0.04 µM) | relative viability ([1]; first compound 0.1265 µM) | relative viability ([1]; first compound 0.4 µM) | relative viability ([1]; first compound 1.265 µM) | relative viability ([1]; first compound 4 µM) | relative viability ([2]; first compound 0.04 µM) | relative viability ([2]; first compound 0.1265 µM) | relative viability ([2]; first compound 0.4 µM) | relative viability ([2]; first compound 1.265 µM) | relative viability ([2]; first compound 4 µM) | relative viability ([3]; first compound 0.002 µM) | relative viability ([3]; first compound 0.006325 µM) | relative viability ([3]; first compound 0.02 µM) | relative viability ([3]; first compound 0.06325 µM) | relative viability ([3]; first compound 0.2 µM) | relative viability ([4]; first compound 0.002 µM) | relative viability ([4]; first compound 0.006325 µM) | relative viability ([4]; first compound 0.02 µM) | relative viability ([4]; first compound 0.06325 µM) | relative viability ([4]; first compound 0.2 µM)
NCI-H1651 | 0.305 | 0.314 | 0.318 | 0.518 | 0.332 | 0.717 | 0.374 | 0.611 | 0.578 | 0.651 | 0.857 | 0.783 | 0.821 | 0.827 | 0.786 | 0.684 | 0.645 | 0.703 | 0.658 | 0.644
COR-L 105 | 0.363 | 0.379 | 0.31 | 0.354 | 0.334 | 0.567 | 0.667 | 0.513 | 0.615 | 0.642 | 0.442 | 0.423 | 0.47 | 0.479 | 0.453 | 0.431 | 0.332 | 0.31 | 0.366 | 0.338
RERF-LC-KJ | 0.808 | 0.829 | 0.726 | 0.687 | 0.668 | 0.757 | 0.739 | 0.692 | 0.573 | 0.521 | 0.842 | 0.856 | 0.909 | 0.736 | 0.639 | 0.52 | 0.477 | 0.526 | 0.475 | 0.325
NCI-H1793 | 0.379 | 0.372 | 0.294 | 0.374 | 0.323 | 0.404 | 0.398 | – | 0.454 | 0.38 | 0.411 | 0.323 | 0.381 | 0.423 | 0.424 | 0.3 | 0.286 | 0.402 | 0.323 | 0.403
CAL-12T | 0.315 | 0.478 | 0.273 | 0.375 | 0.305 | – | – | – | – | – | 0.332 | 0.329 | 0.328 | 0.347 | 0.331 | 0.337 | 0.276 | 0.329 | 0.286 | 0.277
NCI-H1993 | 0.785 | 0.562 | 0.51 | 0.51 | 0.522 | 0.53 | 0.584 | 0.588 | 0.545 | 0.501 | 0.457 | 0.439 | 0.551 | 0.522 | 0.549 | 0.68 | 0.46 | 0.523 | 0.615 | 0.506
LXF-289 | 0.19 | 0.218 | 0.135 | 0.202 | 0.195 | 0.438 | 0.402 | 0.368 | 0.438 | 0.395 | 0.685 | 0.673 | 0.729 | 0.676 | 0.637 | 0.165 | 0.19 | 0.194 | 0.163 | 0.183
NCI-H1792 | 0.469 | 0.92 | 0.68 | 0.794 | 0.569 | 0.505 | 0.599 | 0.514 | 0.558 | 0.472 | 0.374 | 0.406 | 0.533 | 0.393 | 0.41 | – | – | – | – | –
